Results on eight molecules are retold here after ChEMBL document CHEMBL1133136, “A high-throughput screening utilizing intramolecular fluorescence resonance energy transfer for the discovery of the molecules that bind HIV-1 TAR RNA specifically” (Bioorg Med Chem Lett, 2000).

Residues, ends and D or L forms follow the SMILES beside them.

One test deals with Nucleic Acid. In words: Dissociation constant with HIV-1 trans activation responsive element of mRNA was determined. The format is nucleic-acid assay, Human immunodeficiency virus 1.
Conditions: not given
With `C[C@H](N)C(=O)N[C@@H](C)C(=O)N[C@@H](C)C(=O)N[C@@H](C)C(=O)N[C@@H](C)C(=O)N[C@@H](CCCN=C(N)N)C(=O)N[C@@H](CCCN=C(N)N)C(=O)N[C@@H](C)C(=O)N[C@@H](CCCN=C(N)N)C(=O)N[C@@H](C)C(=O)N[C@@H](C)C(=O)N[C@@H](C)C(=O)N[C@@H](C)C(=O)N[C@@H](C)C(=O)N[C@@H](C)C(=O)N[C@@H](C)C(=O)O` (H-AAAAARRARAAAAAAA-OH), the dissociation constant Kd entry was “No binding”.
As for `C[C@H](N)C(=O)N[C@@H](C)C(=O)N[C@@H](C)C(=O)N[C@@H](C)C(=O)N[C@@H](C)C(=O)N[C@@H](CCCN=C(N)N)C(=O)N[C@@H](CCCN=C(N)N)C(=O)N[C@@H](C)C(=O)N[C@@H](CCCN=C(N)N)C(=O)N[C@@H](CCCN=C(N)N)C(=O)N[C@@H](C)C(=O)N[C@@H](C)C(=O)N[C@@H](C)C(=O)N[C@@H](C)C(=O)N[C@@H](C)C(=O)N[C@@H](C)C(=O)O` (H-AAAAARRARRAAAAAA-OH), the dissociation constant (Kd) entry was “No binding”.

Staying with this test, now noted: read-out: Kd.
As to `C[C@H](N)C(=O)N[C@@H](C)C(=O)N[C@@H](C)C(=O)N[C@@H](C)C(=O)N[C@@H](C)C(=O)N[C@@H](CCCN=C(N)N)C(=O)N[C@@H](CCCN=C(N)N)C(=O)N[C@@H](C)C(=O)N[C@@H](CCCN=C(N)N)C(=O)N[C@@H](CCCN=C(N)N)C(=O)N[C@@H](CCCN=C(N)N)C(=O)N[C@@H](C)C(=O)N[C@@H](C)C(=O)N[C@@H](C)C(=O)N[C@@H](C)C(=O)N[C@@H](C)C(=O)O` (H-AAAAARRARRRAAAAA-OH), the Kd came out at 18000 nM.
Same read-out and setting: for `C[C@H](N)C(=O)N[C@@H](C)C(=O)N[C@@H](C)C(=O)N[C@@H](C)C(=O)N[C@@H](C)C(=O)N[C@@H](CCCN=C(N)N)C(=O)N[C@@H](CCCN=C(N)N)C(=O)N[C@@H](CCCN=C(N)N)C(=O)N[C@@H](CCCN=C(N)N)C(=O)N[C@@H](CCCN=C(N)N)C(=O)N[C@@H](C)C(=O)N[C@@H](C)C(=O)N[C@@H](C)C(=O)N[C@@H](C)C(=O)N[C@@H](C)C(=O)N[C@@H](C)C(=O)O` (H-AAAAARRRRRAAAAAA-OH) the value was 66000 nM.
On the same count and under the same terms, as for `C[C@H](N)C(=O)N[C@@H](C)C(=O)N[C@@H](C)C(=O)N[C@@H](C)C(=O)N[C@@H](CCCCN)C(=O)N[C@@H](CCCCN)C(=O)N[C@@H](CCCN=C(N)N)C(=O)N[C@@H](CCCN=C(N)N)C(=O)N[C@@H](C)C(=O)N[C@@H](CCCN=C(N)N)C(=O)N[C@@H](CCCN=C(N)N)C(=O)N[C@@H](CCCN=C(N)N)C(=O)N[C@@H](C)C(=O)N[C@@H](C)C(=O)N[C@@H](C)C(=O)O` (H-AAAAKKRRARRRAAA-OH), the figure is 170 nM.
`C[C@H](N)C(=O)N[C@@H](C)C(=O)N[C@@H](C)C(=O)N[C@@H](CCCN=C(N)N)C(=O)N[C@@H](C)C(=O)N[C@@H](C)C(=O)N[C@@H](CCCN=C(N)N)C(=O)N[C@@H](CCCN=C(N)N)C(=O)N[C@@H](C)C(=O)N[C@@H](CCCN=C(N)N)C(=O)N[C@@H](CCCN=C(N)N)C(=O)N[C@@H](CCCN=C(N)N)C(=O)N[C@@H](C)C(=O)N[C@@H](C)C(=O)N[C@@H](C)C(=O)O` (H-AAARAARRARRRAAA-OH): the Kd came out at 2900 nM.
On the same count and under the same terms, as for `C[C@H](N)C(=O)N[C@@H](C)C(=O)N[C@@H](C)C(=O)N[C@@H](CCCN=C(N)N)C(=O)N[C@@H](CCCCN)C(=O)N[C@@H](CCCCN)C(=O)N[C@@H](CCCN=C(N)N)C(=O)N[C@@H](CCCN=C(N)N)C(=O)N[C@@H](C)C(=O)N[C@@H](CCCN=C(N)N)C(=O)N[C@@H](CCCN=C(N)N)C(=O)N[C@@H](CCCN=C(N)N)C(=O)N[C@@H](C)C(=O)N[C@@H](C)C(=O)N[C@@H](C)C(=O)O` (H-AAARKKRRARRRAAA-OH), the figure is 80 nM.
Still for that read-out and setting: as for `C[C@H](N)C(=O)N[C@@H](C)C(=O)N[C@@H](C)C(=O)N[C@@H](CCCN=C(N)N)C(=O)N[C@@H](CCCCN)C(=O)N[C@@H](CCCCN)C(=O)N[C@@H](CCCN=C(N)N)C(=O)N[C@@H](CCCN=C(N)N)C(=O)N[C@@H](CCC(N)=O)C(=O)N[C@@H](CCCN=C(N)N)C(=O)N[C@@H](CCCN=C(N)N)C(=O)N[C@@H](CCCN=C(N)N)C(=O)N[C@@H](C)C(=O)N[C@@H](C)C(=O)N[C@@H](C)C(=O)O` (H-AAARKKRRQRRRAAA-OH), the figure is 70 nM.

The Kd is the constant that tells how readily two partners part at equilibrium.
